Reference: ChEMBL document CHEMBL1152764, “Penicilliols A and B, novel inhibitors specific to mammalian Y-family DNA polymerases” (Bioorg Med Chem, 2009)
Active and inactive are the calls of the source. No cut-off for these calls is given here.

Assays:
[1] = target: T1, DNA polymerase kappa (Homo sapiens) (UniProt Q9UBT6); assay: Inhibition of human DNA polymerase kappa
T1 sequence (whole entry): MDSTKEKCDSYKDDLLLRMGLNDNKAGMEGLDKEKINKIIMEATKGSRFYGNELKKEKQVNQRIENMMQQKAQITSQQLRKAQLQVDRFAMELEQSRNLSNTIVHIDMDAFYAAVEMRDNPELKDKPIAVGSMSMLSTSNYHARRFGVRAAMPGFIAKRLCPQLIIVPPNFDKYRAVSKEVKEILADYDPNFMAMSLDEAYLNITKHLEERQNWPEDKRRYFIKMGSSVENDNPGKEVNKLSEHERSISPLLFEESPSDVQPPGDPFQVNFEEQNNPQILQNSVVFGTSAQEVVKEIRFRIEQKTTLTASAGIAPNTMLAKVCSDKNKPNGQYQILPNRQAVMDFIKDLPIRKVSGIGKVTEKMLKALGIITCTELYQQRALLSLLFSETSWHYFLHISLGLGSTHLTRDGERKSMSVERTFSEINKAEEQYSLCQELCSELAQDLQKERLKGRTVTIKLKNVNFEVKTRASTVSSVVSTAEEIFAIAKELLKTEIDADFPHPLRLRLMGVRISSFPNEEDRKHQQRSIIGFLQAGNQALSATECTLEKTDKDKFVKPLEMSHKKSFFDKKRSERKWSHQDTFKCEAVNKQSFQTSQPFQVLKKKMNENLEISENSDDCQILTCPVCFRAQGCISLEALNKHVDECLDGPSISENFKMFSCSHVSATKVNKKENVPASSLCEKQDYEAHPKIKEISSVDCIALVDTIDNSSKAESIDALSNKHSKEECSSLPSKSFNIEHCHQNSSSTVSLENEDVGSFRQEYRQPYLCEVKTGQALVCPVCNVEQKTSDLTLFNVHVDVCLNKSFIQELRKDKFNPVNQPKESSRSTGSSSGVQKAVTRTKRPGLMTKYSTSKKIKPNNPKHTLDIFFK

[2] = target: T2, DNA polymerase iota (Mus musculus) (UniProt Q6R3M4); assay: Inhibition of mouse DNA polymerase iota
T2 sequence (whole entry): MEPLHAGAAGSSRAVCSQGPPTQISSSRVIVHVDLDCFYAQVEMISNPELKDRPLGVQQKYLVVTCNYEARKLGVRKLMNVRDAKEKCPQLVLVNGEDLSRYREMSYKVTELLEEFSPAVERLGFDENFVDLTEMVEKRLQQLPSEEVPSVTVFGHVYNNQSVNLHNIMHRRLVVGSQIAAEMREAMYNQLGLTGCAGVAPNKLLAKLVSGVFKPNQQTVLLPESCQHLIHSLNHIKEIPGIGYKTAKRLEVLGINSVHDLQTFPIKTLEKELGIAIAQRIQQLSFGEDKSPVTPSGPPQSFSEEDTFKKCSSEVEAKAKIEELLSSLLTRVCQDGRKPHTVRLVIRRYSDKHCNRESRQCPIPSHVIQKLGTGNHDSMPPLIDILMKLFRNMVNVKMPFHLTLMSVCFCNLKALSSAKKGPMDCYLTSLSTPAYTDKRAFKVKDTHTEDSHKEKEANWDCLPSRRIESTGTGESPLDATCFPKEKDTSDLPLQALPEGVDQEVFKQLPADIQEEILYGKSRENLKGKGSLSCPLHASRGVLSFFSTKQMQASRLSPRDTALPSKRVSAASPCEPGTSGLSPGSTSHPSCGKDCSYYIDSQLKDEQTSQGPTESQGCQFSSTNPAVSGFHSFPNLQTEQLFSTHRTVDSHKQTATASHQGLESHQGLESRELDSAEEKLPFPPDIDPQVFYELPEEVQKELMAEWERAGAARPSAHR

[3] = target: T3, DNA polymerase eta (Homo sapiens) (UniProt Q9Y253); assay: Inhibition of human DNA polymerase eta
T3 sequence (whole entry): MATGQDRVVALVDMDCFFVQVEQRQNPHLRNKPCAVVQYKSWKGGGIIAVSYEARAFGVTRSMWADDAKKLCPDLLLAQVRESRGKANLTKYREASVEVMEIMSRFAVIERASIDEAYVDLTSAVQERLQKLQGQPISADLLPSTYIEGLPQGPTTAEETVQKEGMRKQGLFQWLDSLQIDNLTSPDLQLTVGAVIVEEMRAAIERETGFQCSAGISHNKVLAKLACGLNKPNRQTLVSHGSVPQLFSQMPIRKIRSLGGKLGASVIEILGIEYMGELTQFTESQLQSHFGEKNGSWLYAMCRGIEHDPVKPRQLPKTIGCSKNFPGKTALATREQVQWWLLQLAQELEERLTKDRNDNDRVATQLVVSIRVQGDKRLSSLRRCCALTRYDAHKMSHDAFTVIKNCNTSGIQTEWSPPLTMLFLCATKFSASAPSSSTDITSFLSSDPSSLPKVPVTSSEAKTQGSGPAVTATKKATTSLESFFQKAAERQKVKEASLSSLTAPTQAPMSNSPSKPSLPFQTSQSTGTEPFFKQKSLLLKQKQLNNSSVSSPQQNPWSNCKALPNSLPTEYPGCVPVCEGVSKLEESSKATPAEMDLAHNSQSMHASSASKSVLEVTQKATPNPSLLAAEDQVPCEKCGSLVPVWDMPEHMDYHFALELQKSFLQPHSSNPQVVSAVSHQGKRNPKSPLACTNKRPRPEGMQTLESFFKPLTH

[4] = target: T1, DNA polymerase kappa (Homo sapiens); assay: Inhibition of human DNA polymerase kappa at 100 uM
[5] = target: T2, DNA polymerase iota (Mus musculus); assay: Inhibition of mouse DNA polymerase iota at 100 uM
[6] = target: T3, DNA polymerase eta (Homo sapiens); assay: Inhibition of human DNA polymerase eta at 100 uM
Homo sapiens [7] = species on record: Homo sapiens; assay: Inhibition of human DNA polymerase gamma at 100 uM
Bos taurus [8] = species on record: Bos taurus; assay: Inhibition of calf DNA polymerase alpha at 100 uM
Homo sapiens [9] = species on record: Homo sapiens; assay: Inhibition of human DNA polymerase delta at 100 uM
Homo sapiens [10] = species on record: Homo sapiens; assay: Inhibition of human DNA polymerase epsilon at 100 uM
[11] = target: DNA polymerase beta (Rattus norvegicus) (UniProt P06766); assay: Inhibition of rat DNA polymerase beta at 100 uM
[12] = target: DNA polymerase lambda (Homo sapiens) (UniProt Q9UGP5); assay: Inhibition of human DNA polymerase lambda at 100 uM
[13] = target: DNA nucleotidylexotransferase (Bos taurus) (UniProt P06526); assay: Inhibition of calf terminal deoxynucleotidyltransferase at 100 uM
Oncorhynchus masou = assay: Inhibition of cherry salmon DNA polymerase delta at 100 uM
Drosophila melanogaster [14] = assay: Inhibition of fruit fly DNA polymerase alpha at 100 uM
Drosophila melanogaster [15] = assay: Inhibition of fruit fly DNA polymerase delta at 100 uM
Drosophila melanogaster [16] = assay: Inhibition of fruit fly DNA polymerase epsilon at 100 uM
[17] = system: Brassica oleracea var. botrytis; assay: Inhibition of cauliflower DNA polymerase alpha at 100 uM
Escherichia coli = assay: Inhibition of Escherichia coli DNA polymerase 1 Klenow fragment at 100 uM
[18] = target: DNA-directed DNA polymerase (Enterobacteria phage T4) (UniProt P04415); assay: Inhibition of Enterobacteria phage T4 DNA polymerase at 100 uM; settings: Tequatrovirus T4
Thermus aquaticus = assay: Inhibition of Taq DNA polymerase at 100 uM
Bos taurus [19] = species on record: Bos taurus; assay: Inhibition of calf primase of DNA polymerase alpha at 100 uM
[20] = target: Human immunodeficiency virus type 1 reverse transcriptase (Human immunodeficiency virus 1) (UniProt Q72547); assay: Inhibition of HIV-1 reverse transcriptase at 100 uM
[21] = target: Telomerase reverse transcriptase (Homo sapiens) (UniProt O14746); assay: Inhibition of human telomerase at 100 uM
Escherichia phage T7 = assay: Inhibition of Enterobacteria phage T7 RNA polymerase at 100 uM
[22] = target: Inosine-5'-monophosphate dehydrogenase 2 (Mus musculus) (UniProt P24547); assay: Inhibition of mouse IMP dehydrogenase 2 at 100 uM
[23] = target: DNA topoisomerase 1 (Homo sapiens) (UniProt P11387); assay: Inhibition of human DNA topoisomerase 1 at 100 uM
Homo sapiens [24] = species on record: Homo sapiens; assay: Inhibition of human DNA topoisomerase 2 at 100 uM
[25] = target: Polynucleotide kinase (Enterobacteria phage T4) (UniProt P06855); assay: Inhibition of Enterobacteria phage T4 Polynucleotide kinase at 100 uM; settings: Tequatrovirus T4
[26] = target: Deoxyribonuclease-1 (Bos taurus) (UniProt P00639); assay: Inhibition of bovine deoxyribonuclease 1 at 100 uM
Oryza sativa = assay: Inhibition of rice DNA polymerase lambda at 100 uM

Sequence of Inosine-5'-monophosphate dehydrogenase 2 (Mus musculus) (P24547 whole entry, looked up): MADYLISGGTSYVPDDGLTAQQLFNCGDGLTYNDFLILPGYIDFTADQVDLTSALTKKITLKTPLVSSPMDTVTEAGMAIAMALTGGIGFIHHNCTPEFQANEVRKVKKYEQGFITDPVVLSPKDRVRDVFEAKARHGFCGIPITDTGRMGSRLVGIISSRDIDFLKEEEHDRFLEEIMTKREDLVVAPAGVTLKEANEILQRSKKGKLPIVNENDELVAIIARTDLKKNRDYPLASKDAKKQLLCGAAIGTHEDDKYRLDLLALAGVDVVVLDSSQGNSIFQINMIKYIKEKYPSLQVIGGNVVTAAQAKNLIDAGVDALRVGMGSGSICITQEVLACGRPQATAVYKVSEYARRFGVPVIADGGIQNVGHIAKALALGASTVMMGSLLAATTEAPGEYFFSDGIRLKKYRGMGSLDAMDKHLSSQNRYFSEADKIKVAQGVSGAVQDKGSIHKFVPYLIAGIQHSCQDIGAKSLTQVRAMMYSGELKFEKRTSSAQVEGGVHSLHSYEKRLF
Sequence of DNA nucleotidylexotransferase (Bos taurus) (P06526 whole entry): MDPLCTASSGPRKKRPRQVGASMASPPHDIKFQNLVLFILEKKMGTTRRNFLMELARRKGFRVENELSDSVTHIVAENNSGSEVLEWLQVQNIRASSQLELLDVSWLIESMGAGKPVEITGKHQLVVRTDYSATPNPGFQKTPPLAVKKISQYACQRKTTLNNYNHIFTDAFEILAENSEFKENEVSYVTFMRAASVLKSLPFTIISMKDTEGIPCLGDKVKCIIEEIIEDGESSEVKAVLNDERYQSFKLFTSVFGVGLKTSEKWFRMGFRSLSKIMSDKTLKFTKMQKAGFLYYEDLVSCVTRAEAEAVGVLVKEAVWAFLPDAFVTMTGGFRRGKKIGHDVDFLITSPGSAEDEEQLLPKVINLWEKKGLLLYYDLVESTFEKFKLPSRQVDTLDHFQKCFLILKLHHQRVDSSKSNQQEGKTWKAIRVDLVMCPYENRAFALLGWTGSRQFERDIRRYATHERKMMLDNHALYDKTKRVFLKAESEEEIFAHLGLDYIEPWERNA
Sequence of Telomerase reverse transcriptase (Homo sapiens) (O14746 whole entry): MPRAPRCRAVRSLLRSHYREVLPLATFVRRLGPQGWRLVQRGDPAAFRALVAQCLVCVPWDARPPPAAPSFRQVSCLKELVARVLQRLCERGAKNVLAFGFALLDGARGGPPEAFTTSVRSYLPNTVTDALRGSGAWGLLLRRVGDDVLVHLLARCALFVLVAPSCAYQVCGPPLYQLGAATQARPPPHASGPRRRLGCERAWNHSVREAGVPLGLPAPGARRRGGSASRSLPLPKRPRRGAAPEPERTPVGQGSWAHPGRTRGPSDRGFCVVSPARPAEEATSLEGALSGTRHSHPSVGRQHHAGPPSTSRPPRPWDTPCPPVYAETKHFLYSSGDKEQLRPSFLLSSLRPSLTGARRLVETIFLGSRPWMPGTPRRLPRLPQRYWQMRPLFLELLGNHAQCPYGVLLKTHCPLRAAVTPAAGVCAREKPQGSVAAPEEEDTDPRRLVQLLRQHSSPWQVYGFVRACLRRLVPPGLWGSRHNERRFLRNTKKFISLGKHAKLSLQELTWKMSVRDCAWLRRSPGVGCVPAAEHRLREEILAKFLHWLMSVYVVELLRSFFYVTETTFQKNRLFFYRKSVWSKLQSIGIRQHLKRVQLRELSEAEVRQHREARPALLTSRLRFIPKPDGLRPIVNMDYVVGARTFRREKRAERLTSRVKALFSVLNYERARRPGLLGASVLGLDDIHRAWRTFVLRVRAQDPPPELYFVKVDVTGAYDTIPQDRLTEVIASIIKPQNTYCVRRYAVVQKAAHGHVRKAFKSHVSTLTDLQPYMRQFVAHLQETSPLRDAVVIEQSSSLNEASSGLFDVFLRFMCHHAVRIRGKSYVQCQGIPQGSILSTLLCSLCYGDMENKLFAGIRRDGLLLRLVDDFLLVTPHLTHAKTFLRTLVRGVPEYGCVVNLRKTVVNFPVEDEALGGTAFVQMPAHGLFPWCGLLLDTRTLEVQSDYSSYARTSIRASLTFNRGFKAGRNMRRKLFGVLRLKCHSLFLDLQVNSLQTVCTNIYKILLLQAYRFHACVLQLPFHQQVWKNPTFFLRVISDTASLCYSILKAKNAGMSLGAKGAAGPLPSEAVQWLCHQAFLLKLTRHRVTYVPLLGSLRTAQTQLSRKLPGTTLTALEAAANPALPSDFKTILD
Sequence of DNA-directed DNA polymerase (Enterobacteria phage T4) (P04415 whole entry): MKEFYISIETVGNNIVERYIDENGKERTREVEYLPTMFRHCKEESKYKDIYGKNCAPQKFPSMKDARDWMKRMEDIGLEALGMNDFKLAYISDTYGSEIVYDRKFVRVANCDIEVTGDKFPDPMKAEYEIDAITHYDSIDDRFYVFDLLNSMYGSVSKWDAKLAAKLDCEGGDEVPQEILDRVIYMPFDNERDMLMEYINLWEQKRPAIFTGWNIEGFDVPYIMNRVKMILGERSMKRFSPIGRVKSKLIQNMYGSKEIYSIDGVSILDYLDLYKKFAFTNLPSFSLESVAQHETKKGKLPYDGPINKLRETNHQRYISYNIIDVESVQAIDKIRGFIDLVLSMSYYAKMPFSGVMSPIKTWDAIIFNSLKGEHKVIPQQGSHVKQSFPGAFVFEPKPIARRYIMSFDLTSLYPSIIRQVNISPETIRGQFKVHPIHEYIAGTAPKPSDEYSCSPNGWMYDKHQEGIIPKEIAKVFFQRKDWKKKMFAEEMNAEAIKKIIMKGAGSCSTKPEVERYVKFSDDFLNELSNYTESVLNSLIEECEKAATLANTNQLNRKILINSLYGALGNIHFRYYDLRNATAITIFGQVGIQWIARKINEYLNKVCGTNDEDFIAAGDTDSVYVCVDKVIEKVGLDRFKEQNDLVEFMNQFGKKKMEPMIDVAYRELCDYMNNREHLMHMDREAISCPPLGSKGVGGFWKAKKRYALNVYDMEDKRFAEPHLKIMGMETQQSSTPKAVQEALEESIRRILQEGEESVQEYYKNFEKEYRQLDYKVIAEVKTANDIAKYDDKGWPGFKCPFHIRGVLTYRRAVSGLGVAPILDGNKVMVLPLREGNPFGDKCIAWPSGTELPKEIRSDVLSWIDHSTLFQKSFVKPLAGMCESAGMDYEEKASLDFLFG
Sequence of Deoxyribonuclease-1 (Bos taurus) (P00639 whole entry): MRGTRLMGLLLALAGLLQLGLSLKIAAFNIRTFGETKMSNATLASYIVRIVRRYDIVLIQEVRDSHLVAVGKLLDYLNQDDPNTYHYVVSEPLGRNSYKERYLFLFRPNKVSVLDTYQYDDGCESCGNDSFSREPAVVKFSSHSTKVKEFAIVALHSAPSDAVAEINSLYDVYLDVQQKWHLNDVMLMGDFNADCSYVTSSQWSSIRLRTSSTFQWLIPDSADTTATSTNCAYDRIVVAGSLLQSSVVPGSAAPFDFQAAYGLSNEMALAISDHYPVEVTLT
Sequence of DNA polymerase lambda (Homo sapiens) (Q9UGP5 whole entry): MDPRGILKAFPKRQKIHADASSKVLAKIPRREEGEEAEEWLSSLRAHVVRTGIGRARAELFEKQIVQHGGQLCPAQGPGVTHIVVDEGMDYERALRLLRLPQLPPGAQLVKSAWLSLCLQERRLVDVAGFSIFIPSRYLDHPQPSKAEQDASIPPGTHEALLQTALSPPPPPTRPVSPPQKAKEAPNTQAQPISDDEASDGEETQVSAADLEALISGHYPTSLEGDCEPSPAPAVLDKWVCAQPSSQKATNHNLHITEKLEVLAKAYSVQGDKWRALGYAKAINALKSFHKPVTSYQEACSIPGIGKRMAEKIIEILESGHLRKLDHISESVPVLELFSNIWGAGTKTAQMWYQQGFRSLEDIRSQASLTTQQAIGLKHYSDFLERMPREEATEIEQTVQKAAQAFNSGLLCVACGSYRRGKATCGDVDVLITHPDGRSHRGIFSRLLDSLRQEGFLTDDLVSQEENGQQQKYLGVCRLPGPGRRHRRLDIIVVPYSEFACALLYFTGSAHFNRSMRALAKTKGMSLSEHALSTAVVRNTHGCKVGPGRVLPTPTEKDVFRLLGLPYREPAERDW
Sequence of DNA topoisomerase 1 (Homo sapiens) (P11387 whole entry): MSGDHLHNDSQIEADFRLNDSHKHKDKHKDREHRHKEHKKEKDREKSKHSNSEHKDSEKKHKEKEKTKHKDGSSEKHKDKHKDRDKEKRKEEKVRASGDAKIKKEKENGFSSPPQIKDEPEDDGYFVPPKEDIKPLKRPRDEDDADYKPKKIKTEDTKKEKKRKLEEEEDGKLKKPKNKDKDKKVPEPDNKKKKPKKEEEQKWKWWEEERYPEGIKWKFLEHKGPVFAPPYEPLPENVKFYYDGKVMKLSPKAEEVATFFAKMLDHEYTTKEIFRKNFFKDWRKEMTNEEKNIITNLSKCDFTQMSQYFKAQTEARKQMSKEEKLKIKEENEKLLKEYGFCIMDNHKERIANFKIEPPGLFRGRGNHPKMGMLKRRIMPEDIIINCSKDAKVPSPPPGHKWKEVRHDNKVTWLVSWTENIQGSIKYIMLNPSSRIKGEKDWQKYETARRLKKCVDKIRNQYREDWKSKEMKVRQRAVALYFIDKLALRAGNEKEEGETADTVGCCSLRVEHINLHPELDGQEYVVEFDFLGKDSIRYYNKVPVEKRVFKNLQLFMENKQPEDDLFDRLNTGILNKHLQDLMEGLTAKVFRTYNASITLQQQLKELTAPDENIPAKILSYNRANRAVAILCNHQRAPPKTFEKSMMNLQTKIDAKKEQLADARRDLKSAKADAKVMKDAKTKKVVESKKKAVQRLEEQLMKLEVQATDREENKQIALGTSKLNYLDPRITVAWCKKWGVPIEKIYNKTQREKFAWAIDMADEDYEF
Sequence of Polynucleotide kinase (Enterobacteria phage T4) (P06855 whole entry): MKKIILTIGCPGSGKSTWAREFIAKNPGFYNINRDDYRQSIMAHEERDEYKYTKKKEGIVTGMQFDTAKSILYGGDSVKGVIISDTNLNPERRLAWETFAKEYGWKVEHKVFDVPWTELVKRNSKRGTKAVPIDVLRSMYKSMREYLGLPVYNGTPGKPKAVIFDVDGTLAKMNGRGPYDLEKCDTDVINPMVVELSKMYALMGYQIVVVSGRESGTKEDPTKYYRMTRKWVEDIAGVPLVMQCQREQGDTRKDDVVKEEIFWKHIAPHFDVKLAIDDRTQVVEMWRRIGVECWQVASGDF

| Structure (SMILES) | Activity [1] | Activity [2] | Activity [3] | Activity [4] | Activity [5] | Activity [6] | Activity (Homo sapiens [7]) | Activity (Bos taurus [8]) | Activity (Homo sapiens [9]) | Activity (Homo sapiens [10]) | Activity [11] | Activity [12] | Activity [13] | Activity (Oncorhynchus masou) | Activity (Drosophila melanogaster [14]) | Activity (Drosophila melanogaster [15]) | Activity (Drosophila melanogaster [16]) | Activity [17] | Activity (Escherichia coli) | Activity [18] | also measured |
| --- | --- | --- | --- | --- | --- | --- | --- | --- | --- | --- | --- | --- | --- | --- | --- | --- | --- | --- | --- | --- | --- |
| COC1=C(C(=O)CC(C)O)C(=O)C(C)(/C=C/C=C/C(C)O)O1 (stereo unspecified) | Dose-dependent effect | Dose-dependent effect | Dose-dependent effect | Active | Active | Active | inactive | inactive | inactive | inactive | inactive | inactive | inactive | inactive | inactive | inactive | inactive | inactive | inactive | inactive | Activity (Thermus aquaticus): inactive; Activity (Bos taurus [19]): inactive; Activity [20]: inactive; Activity [21]: inactive; Activity (Escherichia phage T7): inactive; Activity [22]: inactive; Activity [23]: inactive; Activity (Homo sapiens [24]): inactive; Activity [25]: inactive; Activity [26]: inactive |
| C/C=C/C(=O)C1=C(OC)OC(C)(/C=C/C=C/C(C)O)C1=O (stereo unspecified) | Dose-dependent effect | Dose-dependent effect | Dose-dependent effect | Active | Active | Active | inactive | inactive | inactive | inactive | inactive | inactive | inactive | inactive | inactive | inactive | inactive | inactive | inactive | inactive | Activity (Thermus aquaticus): inactive; Activity (Bos taurus [19]): inactive; Activity [20]: inactive; Activity [21]: inactive; Activity (Escherichia phage T7): inactive; Activity [22]: inactive; Activity [23]: inactive; Activity (Homo sapiens [24]): inactive; Activity [25]: inactive; Activity [26]: inactive; Activity (Oryza sativa): inactive |
